Numbered stars: 1 amine (or outer) side, 2 acyl side, 3 side chain; on linkers, the order of the positions; unused ones are H or OH. Square brackets hold non-standard residues; d marks the D form. Peptide text beside a SMILES is read from it. * marks the point of attachment. X2 = CC1(C)C(=O)N(c2ccc(C#N)c(C(F)(F)F)c2)C(=S)N1c1ccc(C(=O)*)c(F)c1; X1 = O=C1CCC(N2C(=O)c3cccc(N(CC(=O)[*:2])[*:1])c3C2=O)C(=O)N1; EuK = O=C(O)CC[C@H](NC(=O)N[C@@H](CCCCN*)C(=O)O)C(=O)O; 2Nal = N[C@@H](Cc1ccc2ccccc2c1)C(=O)O
Key:
22Rv1 xenograft tumor = assay: Antitumor efficacy in 22Rv1 xenograft mice; assay type: in vivo, BALB/c nude mice; details: for tumor volume / median survival: n = 6
Text: To evaluate the therapeutic potential and superiority of Psa-AR in prostate cancer, we established subcutaneous xenograft tumor models using AR-mutant 22Rv1 cells.[51] All procedures strictly complied with the Guide for the Care and Use of Laboratory Animals and were approved by the Committee for Animal Research of the National Center for Nanoscience and Technology. When the tumor volume reached ~100 mm³, 22Rv1-bearing mice were randomized into three groups (n = 6/group): the PBS control, Psa-AR, and P-AR groups. Treatments were administered via tail vein injection every other day for five cycles. The tumor volume and body weight were monitored every other day for 20 days (Fig. 6a). […] The individual tumor growth curves for each group are presented in Supplementary Fig. 20. No obvious body weight loss was observed during treatment (Fig. 6c). […] To elucidate the mechanistic basis of tumor suppression, we quantitatively assessed AR and HSP90 protein expression in excised tumor tissues through IF. […] This dual-target degradation profile directly correlates with the observed therapeutic efficacy, validating the assembly driven target engagement and degradation strategy. […] To address the critical limitations of conventional PROTACs, particularly the Hook effect-induced nonlinear pharmacokinetics and narrow therapeutic window. We rigorously evaluated the dose-responsive antitumor efficacy of Psa-AR in 22Rv1 xenograft models. Mice bearing subcutaneous tumors received escalating doses (10, 20, or 30 mg/kg) via intravenous administration every 48 h for five consecutive treatment cycles. The tumor volume and body weight were evaluated for 20 days. Tumor volume was suppressed in a dose-dependent manner, with a mean tumor volume of […], a mean tumor volume of 536 mm^3 at 20 mg/kg and a mean tumor volume of 220 mm^3 at 10 mg/kg (Fig. 6h). The individual tumor growth curves for each group are presented in Supplementary Fig. 21. […] IF analysis of tumor sections provided spatially resolved dose-dependent quantification of AR and HSP90 proteolysis. […] Collectively, the dose-dependent tumor suppression and coordinated target proteolysis observed in the 22Rv1 xenograft model mechanistically validated the therapeutic superiority of in situ self-assembled Psa-AR. To systematically evaluate the therapeutic advantages of the dual-protein targeting strategy of Psa-AR through simultaneous degradation of AR and HSP90 in overcoming tumor drug resistance, this study compared the antitumor efficacy of Psa-AR with that of current clinical regimens (including the AR inhibitor enzalutamide, the HSP90 inhibitor pimitespib, and their combination) in 22Rv1 xenograft models (Fig. 7a). The experimental protocol was designed as follows: When the tumor volume reached ~100 mm³, the tumor-bearing mice were
Fig. 6 In vivo antitumor efficacy of Psa-AR. a Schematic illustration of the tumor inoculation and treatment protocol for 22Rv1 xenograft mice. (n = 6 per group) b Observation of the tumor inhibitory effect on 22Rv1 xenograft mice in PBS, P-AR, or Psa-AR (20 mg/kg in 200 μL of PBS) over 20 days of treatment. c Body weight changes in 22Rv1 xenograft mice in different treatment groups over 20 days. d Kaplan‒Meier survival curves of 22Rv1 xenograft mice in different groups over 20 days of treatment. e Immunofluorescence analysis of AR protein levels in 22Rv1 tumor tissues after treatment with PBS, P-AR, or Psa-AR (20 mg/kg in 200 μL of PBS) for 20 days. Scale bar: 20 μm. f Immunofluorescence analysis of the HSP90 protein levels in 22Rv1 tumor tissues after treatment with PBS, P-AR, or Psa-AR (20 mg/kg in 200 μL of PBS) for 20 days. Scale bar: 20 μm. g Terminal deoxynucleotidyl transferase (TdT) dUTP nick-end labeling (TUNEL) staining of tumors after treatment with PBS, P-AR, or Psa-AR (20 mg/kg in 200 μL of PBS) for 20 days. […]

[1] = In vivo and ex vivo fluorescence imaging (biodistribution); design: species or system BALB/c nude mice; details: Cy7-labeled, 30 mg/kg intravenous
Experimental: Fig. 5 In vivo evaluation of Psa-AR enrichment and retention. a Representative immunohistochemical (IHC) staining of PSMA and AR expression in tumor tissues from three patients with prostate cancer before and after androgen deprivation therapy. The expression levels of PSMA and AR were assessed in serial sections at identical locations. Scale bars: 40 μm. b In vivo fluorescence images of 22Rv1 xenograft mice after treatment with Cy7-labeled P-AR and Psa-AR (30 mg/kg in 200 μL of PBS) for 2 h and 24 h. c Biodistribution in the tumors and main organs of 22Rv1 xenograft mice after injection with Cy7-labeled Psa-AR (30 mg/kg in 200 μL of PBS) for 24 h. (H Heart, Li Liver, Sp Spleen, Lu Lung, Ki Kidney, T Tumor). d Quantitative analysis of the fluorescence images in (c), n = 3 per group
BALB/c nude mice (6–8 weeks old, 16–18 g) were housed in a specific-pathogen-free (SPF) environment. All experiments were conducted in accordance with the Guidelines for the Management and Use of Laboratory Animals and were approved by the Animal Research Committee of the National Center for Nanoscience and Technology (NCNST 21-202503-0020). […] For ex vivo fluorescence imaging, 22Rv1 xenograft mice were intravenously injected with Cy7-labeled Psa-AR (30 mg/kg in 200 µL of PBS) and sacrificed 24 h post-injection to excise major organs (heart, liver, spleen, lung, and kidney) and tumors.

CC1(C)C(=O)N(c2ccc(C#N)c(C(F)(F)F)c2)C(=S)N1c1ccc(C(=O)NCCCC[C@H](NC(=O)CNc2cccc3c2C(=O)N(C2CCC(=O)NC2=O)C3=O)C(=O)N[C@@H](CS)C(=O)N[C@@H](CCC(N)=O)C(=O)N[C@@H](Cc2ccc(O)cc2)C(=O)N[C@@H](CC(N)=O)C(=O)N[C@@H](CCC(N)=O)C(=O)N[C@@H](Cc2ccc(O)cc2)C(=O)N[C@@H](Cc2ccc(O)cc2)C(=O)N[C@@H](Cc2ccc3ccccc3c2)C(=O)NCCCC[C@H](NC(=O)N[C@@H](CCC(=O)O)C(=O)O)C(=O)O)c(F)c1 (some centres unmarked) [Psa-AR] (H-[X1]K(X2)CQYNQYY[2Nal]-EuK)
FTIR amide I peak without PSMA: 1660 cm⁻¹
extension of median survival compared with P-AR controls (22Rv1 xenograft tumor; 20 mg/kg study): 1.8 fold
extension of median survival compared with PBS controls (22Rv1 xenograft tumor; 20 mg/kg study): 2.2 fold
tumor volume (22Rv1 xenograft tumor; 20 mg/kg tail vein every other day, five cycles, 20 days, PBS 1003 mm^3): 347 mm^3
TUNEL apoptotic index of tumor sections (22Rv1 xenograft tumor; 20 mg/kg, 20 days, compared with PBS control and P-AR): significant increase in the apoptotic index
AR and HSP90 protein expression in excised tumor tissues (22Rv1 xenograft tumor; IF, 20 mg/kg, 20 days): AR and HSP90 reduction
median survival (22Rv1 xenograft tumor; K-M analysis, 20 mg/kg study, PBS 22 days): 48 days
TUNEL analysis of tumor tissue sections (22Rv1 xenograft tumor; comparison study, 30 mg/kg, 20 days): increased activation of tumor apoptosis
tumor volume (22Rv1 xenograft tumor; comparison study, 20 days, Psa-AR 30 mg/kg i.v. every 2 days x5, enzalutamide 25 mg/kg, pimitespib 15 mg/kg, PBS 1017 mm^3): 220 mm^3
median survival (22Rv1 xenograft tumor; comparison study, PBS 21 days): 46 days
body weight during the monitoring cycle (22Rv1 xenograft tumor; dose study, 10, 20, or 30 mg/kg, 20 days): no significant change in the body weight
mean tumor volume at 20 mg/kg (22Rv1 xenograft tumor; dose study, intravenous every 48 h, five cycles, 20 days): 536 mm^3
tumor deposition relative to P-AR ([1]; 2 h, 22Rv1 xenograft mice): 4 fold
tumor retention, residual signal at 24 h ([1]; 24 h): 78%

From publication PMC12521527, “In vivo self-assembled nano-PROTAC for the dual degradation of AR and HSP90 to overcome castration-resistant prostate cancer resistance” (Signal Transduction and Targeted Therapy, 2025)
